# Test results: patent US10369123B2, “Perk activator for the treatment of neurodegenerative diseases” (DEUTSCHES ZENTRUM FÜR NEURODEGENERATIVE ERKRANKUNGEN E.V. …, priority 2014, dated 2019)
# “Also recorded” adds a separate entry of the source.
# What was measured:
# Type in all cases: cell-based, human
# [1] = test system: LUHMES cells; test: Identification of non-toxic, effective concentrations of PERK modulators (MTT viability, pEIF2A Western blot); conditions: for non-toxic concentration effectively modifying EIF2A phosphorylation: LUHMES neurons, 48 h
# Protocol: Nunc™ Nunclon™ Delta 6-well (for protein and mRNA) or 48-well (for cell assays) plates (Thermo Fisher Scientific, Waltham, Mass., USA) were coated with 100 μg/ml poly-L-lysine (Sigma-Aldrich, St. Louis, Mo., USA) and 5 μg/ml fibronectin (Sigma-Aldrich). […] They were then differentiated for 8 days in a medium of DMEM/F12 (Sigma-Aldrich), 1 μg/ml tetracycline, […] and 490 μg/ml dbcAMP into post-mitotic neurons with a dopaminergic phenotype (Lotharius et al. 2005). […] 20 μg of protein (unless indicated otherwise) were adjusted to equal concentrations between samples by dilution with M-PER and subsequently heated at 95° C. for 5 minutes with Roti®-Load 1 (Carl Roth). SDS-PAGE was performed using Any kD™ Mini-PROTEAN® TGX™ Gels (BioRad, Berkeley, Calif., USA) in a tris-glycine running buffer. The protein was blotted onto PVDF membrane (BioRad) at 70 V for 65 minutes on ice. The membrane was blocked with 1× Roti®-Block solution (Carl Roth) for 1 h and then incubated at 4° C. overnight under gentle shaking with the primary antibody (see Table 5) in TBS with 5% BSA (Cell Signaling Technology) and 0.05% TWEEN (Sigma-Aldrich). Thiazolyl Blue Tetrazolium […] (Sigma Aldrich) was dissolved in sterile PBS to a concentration of 5 mg/ml. […] The 48-well culture plate was then incubated at 37° C. for 1 h, the medium removed completely and frozen at −80° C. for 1 h. The plate was then thawed, 300 μl DMSO (AppliChem, Darmstadt, Germany) was added per well and the plate was shaken to ensure complete dissolution of the violet crystals. 100 μl from each well were transferred to a new 96-well plate and the absorbance was read with the FLUOstar Omega (BMG Labtech) platereader at a wavelength of 590 nm (reference wave length 630 nm). The data was analyzed using the MARS Data Analysis Software (BMG Labtech) and Prism 6.
# [2] = test system: LUHMES neurons; test: MTT assay, annonacin-treated LUHMES neurons; conditions: annonacin + PERK activator 200 nM or PERK inhibitor 300 nM, 48 h, vs no PERK modulator
# Protocol: (§1) Nunc™ Nunclon™ Delta 6-well (for protein and mRNA) or 48-well (for cell assays) plates (Thermo Fisher Scientific, Waltham, Mass., USA) were coated with 100 μg/ml poly-L-lysine (Sigma-Aldrich, St. Louis, Mo., USA) and 5 μg/ml fibronectin (Sigma-Aldrich). LUHMES (Lund Human Mesencephalic) cells, derived from human embryonic ventral mesencephalic cells by conditional immortalization (Tet-off v-myc over-expression) were seeded out in a concentration of 130,000 cells/cm^2 to achieve a confluence of 50%. They were then differentiated for 8 days in a medium of DMEM/F12 (Sigma-Aldrich), 1 μg/ml tetracycline, […] and 490 μg/ml dbcAMP into post-mitotic neurons with a dopaminergic phenotype (Lotharius et al. 2005).
# (§2) For all experiments with annonacin, the medium was replaced during the intoxication period with new medium containing glucose levels reduced to 250 μM, i.e. the physiological concentration in the human brain.
# Thiazolyl Blue Tetrazolium […] (MTT) (Sigma Aldrich) was dissolved in sterile PBS to a concentration of 5 mg/ml. This stock solution was added to the cells in culture medium to achieve a final concentration of 0.5 mg/ml. The 48-well culture plate was then incubated at 37° C. for 1 h, the medium removed completely and frozen at −80° C. for 1 h. The plate was then thawed, 300 μl DMSO (AppliChem, Darmstadt, Germany) was added per well and the plate was shaken to ensure complete dissolution of the violet crystals. 100 μl from each well were transferred to a new 96-well plate and the absorbance was read with the FLUOstar Omega (BMG Labtech) platereader at a wavelength of 590 nm (reference wave length 630 nm). The data was analyzed using the MARS Data Analysis Software (BMG Labtech) and Prism 6.
# [3] = test system: LUHMES neurons; test: ATP assay, annonacin-treated LUHMES neurons; conditions: annonacin + PERK activator 200 nM or PERK inhibitor 300 nM, 48 h, vs no PERK modulator
# Protocol: as §1, §2
# ATP assays were conducted using the ViaLight™ plus kit by Lonza according to the manufacturer's instructions. Luminescence was read with the FLUOstar Omega (BMG Labtech) platereader. The data was analyzed using the MARS Data Analysis Software (BMG Labtech) and Prism 6.
SMILES,non-toxic concentration effectively modifying EIF2A phosphorylation [1],"MTT test, effect of co-treatment [2]","ATP concentration, effect of co-treatment [3]",doses at which detrimental effects of UPR overactivation were seen ([1]; in vitro)
"Cn1cc(-c2ccc3c(c2)CCN3C(=O)Cc2cccc(C(F)(F)F)c2)c2c(N)ncnc21 [GSK2606414, reference compound]",300 nM,did not significantly improve; also recorded: never significant,slightly improved ATP concentrations at the single annonacin concentration of 12.5 nM; also recorded: significant only at an annonacin concentration of 12.5 nM,
"CCN(CC)CCC(=O)N1N=C(c2c(-c3ccccc3)c3cc(Br)ccc3[nH]c2=O)CC1c1ccc(Br)cc1 (stereo not shown) [CCT020312, 6-bromo-3-[5-(4-bromo-phenyl)-1-(3-diethylamino-propionyl)-4,5-dihydro-1H-pyrazol-3-yl]-4-phenyl-1H-quinolin-2-one]",200 nM,significant improvement,significant improvement,> 3 µM
